Here are results for one compound from patent US8747362B2, “Microneedle device” (Hisamitsu Pharmaceutical Co., Inc, priority 2009, dated 2014).

Data set [1] in a line: Content (amount deposited) of octreotide acetate per patch of microneedle device, BCA method. Type of data set: physicochemical. As to conditions: average of 10. The procedure:
• Material: Polylactic acid having a weight average molecular weight of about 80,000, Height: 500 μm, Density: 625 needles/cm^2, Formulation area of a microneedle base: 1 cm^2/patch (b) Metal Mask Plate • Pitch: 400 μm, Mask thickness: 100 μm, Opening: square shape (one side: 250 μm) (c) Environmental Setting: Room Temperature (25° C.) The concentration of octreotide acetate and the concentration of propylene glycol or glycerin were set as shown in Table 3 and Table 4, and the materials were set in a rotating/revolving mixer to prepare a carrier (a coating agent). Application of the carrier (the coating agent) to microneedles was performed by a predetermined method. More specifically, the carrier the coating agent) was swept by a spatula to fill openings of a metal mask with the carrier. Microneedles (needles) were inserted in the openings thus filled, and then taken out therefrom, and subsequently, the carrier (the coating agent) thus applied on the microneedles was extracted by purified water. By a BCA method (an octreotide standard), the content (an amount deposited) of octreotide acetate per one patch (sheet) of a microneedle device was measured 10 times; calculated average values are shown in Table 3 and Table 4.

Data set [2] in a line: Viscosity measurement of carrier (coating agent) by micron-sample viscometer. In kind it is physicochemical. As to conditions: 25° C., average of 10. On the procedure: • Material: Polylactic acid having a weight average molecular weight of about 80,000, Height: 500 μm, Density: 625 needles/cm^2, Formulation area of a microneedle base: 1 cm^2/patch (b) Metal Mask Plate • Pitch: 400 μm, Mask thickness: 100 μm, Opening: square shape (one side: 250 μm) (c) Environmental Setting: Room Temperature (25° C.)
The concentration of octreotide acetate and the concentration of propylene glycol or glycerin were set as shown in Table 3 and Table 4, and the materials were set in a rotating/revolving mixer to prepare a carrier (a coating agent). The viscosity of the obtained carrier (the coating agent) was measured 10 times by use of a micron-sample viscometer (RHEOSENSE INC., Micron Sample-Viscometer/Rheometer-on-a-chip VROCTM); calculated average values are shown in. Table 3 and Table 4.

Setting [3] is: carrier: octreotide acetate 20 / glycerin 80 % by weight.
Where [4] appears, read: carrier: octreotide acetate 20 / propylene glycol 80 % by weight.
[5] abbreviates: carrier: octreotide acetate 30 / glycerin 70 % by weight.
The mark [6] stands for this setting: carrier: octreotide acetate 35 / glycerin 65 % by weight.
[7] abbreviates: carrier: octreotide acetate 40 / glycerin 60 % by weight.
Setting [8] is: carrier: octreotide acetate 40 / propylene glycol 60 % by weight.
Where [9] appears, read: carrier: octreotide acetate 50 / glycerin 50 % by weight.
Where [10] appears, read: carrier: octreotide acetate 50 / propylene glycol 50 % by weight.
Setting [11] is: carrier: octreotide acetate 60 / glycerin 40 % by weight.
Where [12] appears, read: carrier: octreotide acetate 60 / propylene glycol 40 % by weight.
Where [13] appears, read: carrier: octreotide acetate 70 / propylene glycol 30 % by weight.
Where [14] appears, read: carrier: octreotide acetate 80 / propylene glycol 20 % by weight.

Each structure is given as a SMILES string.

As to `C[C@@H](O)[C@@H]1NC(=O)[C@H](CCCCN)NC(=O)[C@@H](Cc2c[nH]c3ccccc23)NC(=O)[C@H](Cc2ccccc2)NC(=O)[C@@H](NC(=O)[C@H](N)Cc2ccccc2)CSSC[C@@H](C(=O)N[C@H](CO)[C@@H](C)O)NC1=O` [Octreotide acetate, octreotide acetate], the “Content Avg.” value in data set [1] (setting [3]) worked out at 6 μg/patch; in data set [1] (setting [4]) it was 4 μg/patch; in data set [1] (setting [5]), 39 μg/patch; in data set [1] (setting [6]), 53 μg/patch; in data set [1] (setting [7]), 89 μg/patch; in data set [1] (setting [8]) it was 36 μg/patch. For the same compound, the “Content Avg.” value in data set [1] (setting [9]) is 169 μg/patch; in data set [1] (setting [10]), 121 μg/patch; in data set [1] (setting [11]) it was 149 μg/patch; in data set [1] (setting [12]) it was 243 μg/patch; in data set [1] (setting [13]) it was 237 μg/patch; in data set [1] (setting [14]), 97 μg/patch. Also, the “Viscosity Avg.” value in data set [2] (setting [3]) is given as 2900 cps; in data set [2] (setting [4]) it was 200 cps; in data set [2] (setting [5]), 9000 cps; in data set [2] (setting [6]), 12000 cps; in data set [2] (setting [7]), 15000 cps; in data set [2] (setting [8]), 1600 cps. Besides, the “Viscosity Avg.” value came out at 21000 cps in data set [2] (setting [9]); 5400 cps in data set [2] (setting [10]); 27000 cps in data set [2] (setting [11]); 15000 cps in data set [2] (setting [12]); 45000 cps in data set [2] (setting [13]); 133000 cps in data set [2] (setting [14]).
